The structures appear in SMILES notation.

T1 sequence (P31645 whole entry): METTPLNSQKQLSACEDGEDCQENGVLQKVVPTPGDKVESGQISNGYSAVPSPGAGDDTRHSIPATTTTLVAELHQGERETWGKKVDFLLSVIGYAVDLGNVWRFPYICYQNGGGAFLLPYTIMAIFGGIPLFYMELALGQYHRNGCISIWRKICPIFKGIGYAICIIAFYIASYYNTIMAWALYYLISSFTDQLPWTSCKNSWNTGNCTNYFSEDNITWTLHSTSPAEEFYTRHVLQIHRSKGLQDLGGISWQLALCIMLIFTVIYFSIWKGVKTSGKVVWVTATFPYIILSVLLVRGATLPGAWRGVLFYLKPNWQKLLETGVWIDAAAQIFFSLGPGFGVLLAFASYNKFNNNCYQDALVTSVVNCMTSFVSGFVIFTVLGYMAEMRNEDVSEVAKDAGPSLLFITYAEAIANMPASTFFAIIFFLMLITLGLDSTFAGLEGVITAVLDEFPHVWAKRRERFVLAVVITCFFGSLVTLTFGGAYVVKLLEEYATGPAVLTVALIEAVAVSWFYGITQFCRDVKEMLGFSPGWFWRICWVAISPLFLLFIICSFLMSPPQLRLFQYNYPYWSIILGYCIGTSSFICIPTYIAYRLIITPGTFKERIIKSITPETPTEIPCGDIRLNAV

The test concerns the target T1, human serotonin transporters (Homo sapiens, UniProt P31645).
T1 construct: expressed in transfected cells; membrane homogenates
Description: Serotonin Transporter Binding Assay ([3H]-citalopram displacement, HEK-hSERT cell membranes). Conditions: 1 nM [3H]-citalopram, 1 hr at 25° C., read-out: 5-HT reuptake binding Ki. The protocol:
HEK-293 cells that stably express human serotonin transporters (HEK-hSERT cells) were grown at 37° C. in 5% CO2 as a monolayer in medium consisting of EMEM supplemented with 10% fetal bovine serum and G418 sulfate (500 μg/mL). […] Cells were transferred from plates to polypropylene tubes (16×100 mm), centrifuged at 1,200×g for 5 min and were frozen at −80° C. until assay. Following centrifugation, pellets were resuspended by homogenization in buffer consisting of 50 mM Tris (pH 7.7 at 25° C.), 120 mM NaCl and 5 mM KCl and then centrifuged at 32,000×g for 10 min. Following centrifugation, supernatants were discarded and pellets were resuspended in buffer consisting of 50 mM Tris (pH 7.4 at 25° C.), 150 mM NaCl and 5 mM KCl. Membrane homogenates (200 μl/plate) were incubated with 1 nM [^3H]-citalopram (specific activity=85 Ci/mMol) and increasing concentrations of test compounds for 1 hr at 25° C. in a total volume of 250 μl. The assay buffer consisted of 50 mM Tris (pH 7.4 at 25° C.), 120 mM NaCl and 5 mM KCl (pH 7.4 with conc. HCl). Plates were incubated for 1 hr at 25° C., then filtered through 0.5% PEI treated Whatman GF/B filters using a Brandel cell harvester. Filters were washed three times with 3 mL of ice-cold tris wash buffer. Non-specific binding was defined with 10 μM fluoxetine. Amount of radioligand bound in the presence and absence of competitor was analyzed by plotting (−)log drug concentration versus the amount of radioligand specifically bound. The midpoint of the displacement curve (IC50, nM), signifies the potency.
Consider `CN(C)C1CCCC1Cc1c[nH]c2ccc(C#N)cc12` (mixture of isomers) [Example 54, 3-(2-Dimethylamino-cyclopentylmethyl)-1H-indole-5-carbonitrile], for which the Ki was 0.001 to 0.01 µM. With `CCC([C@H]1CCC[C@@H]1c1c[nH]c2ccc(C#N)cc12)N(C)C` (mixture of isomers) [Example 50, (+/−) trans-3-[2-(1-dimethylaminopropyl)cyclopentyl]-1H-indole-5-carbonitrile,diastereomer A], the Ki lay in the range of 0.01 to 0.1 µM.

With `CCC([C@H]1CCC[C@@H]1c1c[nH]c2ccc(C#N)cc12)N(C)C` (mixture of isomers) [Example 51, (+/−) trans-3-[2-(1-dimethylaminopropyl)cyclopentyl]-1H-indole-5-carbonitrile,diastereomer B], the inhibition constant (Ki) fell in the range of 0.1 to 0.5 µM. As for `CN(C)C[C@@H]1CCC[C@@H]1c1ccc2[nH]cc(C#N)c2c1` (relative stereo) [Example 43, Cis-5-(dimethylaminomethyl-cyclopentyl)-1H-indole-3-carbonitrile], the inhibition constant Ki was 0.001 to 0.01 µM.

With `CC([C@H]1CCCC1c1c[nH]c2ccc(C#N)cc12)N(C)C` (single isomer, unassigned) [Example 48], the inhibition constant Ki fell in the range of 0.01 to 0.1 µM.

On to `CC([C@H]1CCCC1c1c[nH]c2ccc(C#N)cc12)N(C)C` (single isomer, unassigned) [Example 49], for which the Ki is under 0.001 µM. On to `CC([C@H]1CCCC1c1c[nH]c2ccc(C#N)cc12)N(C)C` (single isomer, unassigned; diastereomer b) [Example 47, (+/−) trans-3-[2-(1-dimethylaminoethyl)cyclopentyl]-1H-indole-5-carbonitrile,diastereomer B], for which the Ki is 0.001 to 0.01 µM.

For the molecule `CN(C)C[C@H]1CCC[C@@H]1c1c[nH]c2ccc(I)cc12` [Example 52, (1S,2S)-[2-(5-iodo-1H-indol-3-yl)-cyclopentylmethyl]-dimethylamine], the inhibition constant Ki was 0.01 to 0.1 µM. As for `CNC1CCCC1Cc1c[nH]c2ccc(C#N)cc12` (centres unmarked) [Example 55, 3-(2-Methylamino-cyclopentylmethyl)-1H-indole-5-carbonitrile], the Ki lay in the range of 0.001 to 0.01 µM. As to `CCNC1CCCC1Cc1c[nH]c2ccc(C#N)cc12` (centres unmarked) [Example 56, 3-(2-Ethylamino-cyclopentylmethyl)-1H-indole-5-carbonitrile], the Ki was 0.001 to 0.01 µM. `CCN(CC)C1CCCC1Cc1c[nH]c2ccc(C#N)cc12` (centres unmarked) [Example 57, 3-(2-Diethylamino-cyclopentylmethyl)-1H-indole-5-carbonitrile]: the Ki fell in the range of 0.01 to 0.1 µM. For `CCN(C)C1CCCC1Cc1c[nH]c2ccc(C#N)cc12` (centres unmarked) [Example 58, 3-[2-(Ethyl-methyl-amino)-cyclopentylmethyl]-1H-indole-5-carbonitrile], the inhibition constant (Ki) was 0.001 to 0.01 µM. The figure for `N#Cc1ccc2[nH]cc(CC3CCCC3N3CCCC3)c2c1` (centres unmarked) [Example 59, 3-(2-Pyrrolidin-1-yl-cyclopentylmethyl)-1H-indole-5-carbonitrile] is 0.001 to 0.01 µM; for `CN(Cc1ccccc1)C1CCCC1Cc1c[nH]c2ccc(C#N)cc12` (centres unmarked) [Example 60, 3-[2-(Benzyl-methyl-amino)-cyclopentylmethyl]-1H-indole-5-carbonitrile] it is 0.01 to 0.1 µM.

A word on the Ki: it is the equilibrium dissociation constant of an inhibitor or competing ligand from its target.
